Data published in PubChem BioAssay AID463199 (Broad Institute, 2010).
The source made the active and inactive calls.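 The calls were made as follows: active = AC50, the dose giving half-maximal effect, exceeds a fixed cutoff for a compound that rescues yeast growth under heat; inactive = the rest, inconclusive results apart.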

Each molecule was assayed on S. cerevisiae Burl-1 ts mutant growth, BacTiter-Glo, 38.5C 24 h (assay: growth induction of Burl-1 ts yeast mutant, dose response, counter-screen for SUMOylation pathway inhibitor project, whole organism, S. cerevisiae, luminescence (AID 463199)).

SMILES | AC50
CCOC(=O)c1cc2c(ccn2-c2ccc(F)cc2)n1CC(=O)N1CCN(C(=O)c2ccco2)CC1 | > 42 µM (inactive)
CCN1CCCC1CNC(=O)Cn1cnc2ccc(S(=O)(=O)N3CCC(C)CC3)cc2c1=O (stereo not drawn) | > 42 µM (inactive)
Cc1ccc(N(C(=O)CCl)C(C(=O)NC2CCCCC2)c2cccnc2)cc1C (stereo not drawn) | > 42 µM (inactive)
N/C(Cn1cncn1)=N\NC(=O)c1ccc(Cl)cc1Cl | > 42 µM (inactive)
COc1cccc(-n2nnc3c(=O)n(CC(=O)N4CCCc5ccccc54)cnc32)c1 | > 42 µM (inactive)
COc1ccc(C(=O)CSc2nnc3ccc(-c4ccccn4)nn23)cc1 | > 42 µM (inactive)
O=c1c2c(ncn1Cc1ccccc1)nc1n2CCC1 | > 42 µM (inactive)
O=C(COc1ncnc2ccccc12)Nc1ccc(Cl)c(S(=O)(=O)N2CCOCC2)c1 | > 42 µM (inactive)
NS(=O)(=O)c1ccc(CCNC(=O)CN2CCN(c3ccc(F)cc3)CC2)cc1 | > 42 µM (inactive)
O=C(COC(=O)COc1ccccc1Cl)Nc1ccccc1OC(F)F | > 42 µM (inactive)
CC1(C)NC(=O)N(CC(=O)O)C1=O | > 42 µM (inactive)
CCC1(c2ccccc2)NC(=O)N(CC(=O)N(C)CC(=O)Nc2ccc(F)c(F)c2F)C1=O (stereo not drawn) | > 42 µM (inactive)
CC1=CC(=O)C(C(C)C)=C/C1=N/OS(=O)(=O)c1ccccc1 | > 50 µM (inactive)
O=C(CSc1nnc(CNC(=O)c2ccccc2)o1)NCc1ccco1 | > 42 µM (inactive)
Cc1cc2c(C)ccc(C)c2nc1SCC(=O)c1cccs1 | > 42 µM (inactive)
COc1ccc(NC(=O)c2cc(C)no2)cc1Cl | > 42 µM (inactive)
CCC(C)(C)n1nnnc1C(c1cccnc1)N1CCC(Cc2ccccc2)CC1 (stereo not drawn) | > 42 µM (inactive)
c1ccc2cc(C3CCCCC3)ncc2c1 | > 42 µM (inactive)
O=S(=O)(Cc1ccccc1)NCc1ccccn1 | > 42 µM (inactive)
CC(C)=CC(=O)N1CCCC(N2CCN(c3ccc(F)cc3)CC2)C1 (stereo not drawn) | 2.02 µM
Oc1c(Br)cc(Br)cc1C=Nc1cccnc1 | > 42 µM (inactive)
O=C(c1ccncc1)N(Cc1ccccc1)Cc1nc2ccccc2c(=O)[nH]1 | > 42 µM (inactive)
CN(C)/C=N/NC(=O)c1ccccc1 | > 42 µM (inactive)
O=C(O)c1ccc(CNC(=O)c2ccccc2NC(=O)c2ccc([N+](=O)[O-])cc2)cc1 | > 42 µM (inactive)
Cc1ccc2nc(/C(C#N)=C\c3cc(O)ccc3[N+](=O)[O-])[nH]c2c1 | > 42 µM (inactive)

SMILES | AC50
CCCC(=O)Oc1c(S(=O)(=O)c2ccc(C)cc2)c(C)nn1C(C)(C)C | > 42 µM (inactive)
O=C1CC(c2ccccc2)c2ccc(O)cc2O1 (stereo not drawn) | > 42 µM (inactive)
Cn1cccc1CC(=O)N/N=C/c1cccc([N+](=O)[O-])c1 | > 42 µM (inactive)
COCCCNS(=O)(=O)c1ccc(Oc2ncc(C(F)(F)F)cc2Cl)cc1 | > 42 µM (inactive)
O=C(Cc1ccc(F)cc1)Nc1nc(-c2ccc(F)cc2)cs1 | > 42 µM (inactive)
CCc1c(C)nc(N2CCN(Cc3ccccc3)CC2)[nH]c1=O | > 42 µM (inactive)
CC/C(=N\Nc1ccc([N+](=O)[O-])cc1)c1ccccc1 | > 42 µM (inactive)
CN(C)CCOC(c1ccc(Cl)cc1)c1ccccn1 (stereo not drawn) | > 42 µM (inactive)
CC1CCN(CCCCOc2ccc(F)cc2)CC1 | > 42 µM (inactive)
O=C(OCC#CCSc1nnc(-c2ccccc2)o1)c1cc2ccccc2o1 | > 42 µM (inactive)
COc1ccc(NS(=O)(=O)c2ccc(OCC(=O)N3CCOCC3)cc2)cc1Cl | > 42 µM (inactive)
COc1cc(NC(=O)CCN2CCN(Cc3ccccc3)CC2)cc(OC)c1 | > 42 µM (inactive)
NC(=O)C1CCCN(C(=S)Nc2cccc3ccccc23)C1 (stereo not drawn) | > 42 µM (inactive)
Cc1n[nH]c(C)c1S(=O)(=O)N(CC(=O)NC1CCCC1)c1ccc(C(C)C)cc1 | 38.7 µM
CC1CCCC(C)N1C(=O)CSc1nnnn1-c1cccc2c1CCCC2 (stereo not drawn) | > 42 µM (inactive)
Cc1cc2c3c(c1)C1(SCC(=O)N1c1ccc(F)cc1)C(=O)N3C(C)(C)CC2C (stereo not drawn) | > 42 µM (inactive)
Cc1cc(S(=O)(=O)N2CCCCC2CCNC(=O)C(=O)NCC2CCCO2)ccc1F (stereo not drawn) | > 42 µM (inactive)
O=C1CN(C(=O)c2c(F)cccc2F)C(c2ccc(F)cc2)c2cc(F)ccc2N1 (stereo not drawn) | > 42 µM (inactive)
Cc1ccccc1-c1nc2ccc(Cl)cc2c(=O)n1O | > 42 µM (inactive)
CCOc1ccccc1CN1CCNC(=O)C1CC(=O)NCCN1CCOC1=O (stereo not drawn) | > 42 µM (inactive)
COc1cc(OC)cc(OC(=O)c2ccc3c(=O)n4c(nc3c2)CCC4)c1 | > 42 µM (inactive)
N#C/C(=N\Nc1cccc(F)c1)C(=N)N1CCCCCC1 | > 42 µM (inactive)
CCN1C(=NCCCCO)N[C@@H](c2cccc(C(F)(F)F)c2)C(C(=O)OC)=C1C | > 42 µM (inactive)
O=C(Nc1ccccc1N1CCN(c2ccccc2)CC1)c1cccc(F)c1 | > 42 µM (inactive)
c1ccc(-c2nc(NCc3ccco3)c3ccccc3n2)nc1 | > 42 µM (inactive)

SMILES | AC50
O=C(/C=C/NNC(=O)c1ccc(Br)cc1)c1ccccc1 | > 42 µM (inactive)
Cc1cccc(N=Nc2ccc(N(C)C)cc2)c1 | > 42 µM (inactive)
CCOc1cc(/C=N/NC(=O)C(=O)N/N=C/c2ccc(O)c(OCC)c2)ccc1O | > 42 µM (inactive)
Cc1sc2ncnc(N3CCC(C(=O)NNC(=O)COc4ccccc4F)CC3)c2c1C | > 42 µM (inactive)
COc1cc2ccccc2cc1C(=O)Nc1ccc(CN2CCOCC2)cc1 | > 42 µM (inactive)
Cc1nn(CC(N)=O)c(=O)c2ccccc12 | > 42 µM (inactive)
Cc1cccc(NC(=O)CCc2ccccc2)c1 | > 42 µM (inactive)
CC(=O)CSc1ncnc2sc3c(c12)CCCC3 | > 42 µM (inactive)
CC1CCN(CCCCOc2cccc(Br)c2)CC1 | > 42 µM (inactive)
COc1ccc(/C=N/NC(=O)c2c(C)nc3ccccn23)cc1[N+](=O)[O-] | > 42 µM (inactive)
Cc1onc(-c2ccccc2)c1C(=O)N/N=C/C=C/c1ccccc1 | > 42 µM (inactive)
O=C(N/N=C/c1cccs1)c1cncc(Br)c1 | > 42 µM (inactive)
O=C1CN(C(=O)c2ccccc2F)C(c2ccccc2)c2cc(Cl)ccc2N1 (stereo not drawn) | > 42 µM (inactive)
CN1CC2(C)OC(=O)C(Cl)=C2CC1c1ccccc1 (stereo not drawn) | > 42 µM (inactive)
O=C(c1ccccc1)C(CN1CCCC1)c1ccccc1 (stereo not drawn) | > 42 µM (inactive)
COc1cc(/C=N/NC(=S)NCc2ccco2)cc(OC)c1OC | > 42 µM (inactive)
Cc1ccc(NC(=O)COC(=O)c2csc3c2CCC(C)C3)cc1S(=O)(=O)N1CCCCC1 (stereo not drawn) | > 42 µM (inactive)
CCCc1nnc(NC(=O)c2cn(CC)c3cc(N4CCN(C)CC4)c(F)cc3c2=O)s1 | > 21 µM (inactive)
CN(C)C(=O)CNC(=O)C1CCCCC1 | > 42 µM (inactive)
COc1cc(C(=O)NCCOc2cc(C)cc(C)c2)cc(OC)c1OC | > 42 µM (inactive)
COc1ccc(NC(=O)c2ccc(COc3ccccc3OC)o2)cc1OC | > 42 µM (inactive)
Cc1cc(C)n(C(=O)CNC(=O)c2ccc3c(c2)OCCO3)n1 | > 42 µM (inactive)
COc1cccc(C2/C(=C(/O)c3ccccc3)C(=O)C(=O)N2Cc2ccco2)c1 (stereo not drawn) | > 42 µM (inactive)
